Values of other authors, collected in patent EP0513922B1, “Coating for foods and agricultural products to prevent the growth of moulds” (GIST-BROCADES N.V., priority 1991, dated 1992).

Assays:
fungus growth = conditions: to be effective against fungus growth
[1] = in aqueous systems, depending of the presence of other substances

- solubility of natamycin [1]: 30 - 50 ppm
SMILES: C[C@@H]1C/C=C/C=C/C=C/C=C/[C@H](O[C@@H]2O[C@H](C)[C@@H](O)[C@H](N)[C@@H]2O)C[C@@H]2O[C@](O)(C[C@@H](O)C[C@H]3O[C@@H]3/C=C/C(=O)O1)C[C@H](O)[C@H]2C(=O)O [natamycin]
- minimal inhibitory concentration (fungus growth): less than 10 ppm
